We go through six molecules from paper PMC9788692 (2022).

Test in all cases: in-line probing
Test [1] deals with 95 Csp (RNA, riboswitch) GGAAUGCUUCCUCCGCCACCGGGCGGAGGGUGAAAAGCGUCCACGGUCUCCCGUAGGUACGGCGCGCUCUGCGCGUUACAAGGGAGCCGCGGGCG
The following applies: 100 mM KCl, 20 mM MgCl2, 50 mM Tris-HCl pH 8.3 (23 °C), ~48 h.

For test [2], the system named is 95 Csp M2 (RNA, riboswitch) GGAAUGCUUCCUCCGCCACCGGGCGGAGGGUGAAAAGCGUCCACGGUCUCCCGUAGGAACGGCGCGCUCUGCGCGUUACAAGGGAGCCGCGGGCG
The note with it: 100 mM KCl, 20 mM MgCl2; 50 mM Tris-HCl pH 8.3 (23 °C), ~48 h; highest concentration 10 mM; modulation almost eliminated.

For test [3], the system named is 81 Csp (RNA, riboswitch) GGAAUGCUUCCUCCGCCACCGGGCGGAGGGUGAAAAGCGUCCACGGUCUCCCGUAGGUACGGCGCGCUCUGCGCGUUACAA
The note with it: 100 mM KCl, 20 mM MgCl2; 50 mM Tris-HCl pH 8.3 (23 °C), ~48 h; weaker than 95 Csp.

Test [4] concerns 95 Dsu (RNA, riboswitch) GGAAACUCUUCCCUGUCACCGGAUAGGGAGCCAAGAGGGUUUAUUCCUGCUGCAGGUAAUAUGGCGAAAACCAUUGAAAGGCAGGAAUAAAUCCU
The note with it: 100 mM KCl, 20 mM MgCl2; 50 mM Tris-HCl pH 8.3 (23 °C), ~48 h; highest concentration 10 mM.

Test [5] concerns 105 Mja (RNA, riboswitch) GGAACACCGCUUCUGUCACCGGACAGGAGAAAUGGGGUGUCUGGGAGUUGUCGUAGGUACGGUAUGGUUGCAUGCUAUAAGACAAUUCCUGGGCACCCCUGUUUU
The following applies: 100 mM KCl, 20 mM MgCl2; 50 mM Tris-HCl pH 8.3 (23 °C), ~48 h; highest concentration 10 mM.

Where [6] appears, read: weaker than guanidine, data not shown.
[7] abbreviates: highest concentration not stated.

With `N=C(N)NO`, the binding result in test [1] (setting [6]) is recorded as “weak”.
Turning to `N=C(N)NCCC[C@H](N)C(=O)O`, the binding entry in test [1] (setting [7]) was “no”.
For `N=C(N)N`, the binding result is reported as “weak” in test [1] (0.61 µM-20 mM, no saturation, modulation above 1 mM); “weak” in test [2]; “weak” in test [3]; “no” in test [4]; “no” in test [5].
Regarding `N=C(N)NCCCCN`, the binding entry in test [1] (setting [7]) is “no”.
On to `N=C(N)NOCC[C@H](N)C(=O)O`, for which the binding result in test [1] (setting [7]) is listed as “no”.
For the molecule `CNC(=N)N`, the binding entry in test [1] (setting [6]) is “weak”.
